Experiment: Emulsification of coconut oil and water with different emulsifiers (Example 2)
Format: physicochemical
Conditions: coconut oils solid and liquid (MCT); emulsifying agent tested
Protocol: Several experiments were run using several different emulsifiers and combinations of different coconut oils: solid and liquid (MCT). (Note: liquid MCT is coconut oil that has medium chain triglyceride).
The method used to produce the invention emulsifications, included first heating extra virgin organic coconut oil to between 120 to 220 degrees F. CO2 extracted cannabis oil is added. In a high speed blender (or similar machine) coconut water is added to the coconut fat (oil) to ensure emulsification. While blending, xanthan gum powder is added in an amount between 0.15% and 0.45% of the total volume of finished product. Percentages used herein are on a dry weight basis and are based on the total volume of the finished product. The blender is run at high speed for between 30 seconds and 2.

In the case of cyclodextrin, the “emulsification of the oil and water (result in words)” value is reported as “good results”.

Source: patent publication US10617636B2, “Cannabis infused sweeteners and elixirs” (SRE Wellness, Inc., priority 2016, dated 2020)
